The text below walks through data of patent US9371307B2, “Serine protease inhibitors” (THE JOHNS HOPKINS UNIVERSITY, priority 2011, dated 2016).

What all share (type): biochemical
Assay [1] has as its target T1, human chymase (Homo sapiens, UniProt P23946).
T1 construct: In its active form within the secretory granules of mast cells, human chymase contains 226 amino acid residues
T1 sequence (P23946 22-247): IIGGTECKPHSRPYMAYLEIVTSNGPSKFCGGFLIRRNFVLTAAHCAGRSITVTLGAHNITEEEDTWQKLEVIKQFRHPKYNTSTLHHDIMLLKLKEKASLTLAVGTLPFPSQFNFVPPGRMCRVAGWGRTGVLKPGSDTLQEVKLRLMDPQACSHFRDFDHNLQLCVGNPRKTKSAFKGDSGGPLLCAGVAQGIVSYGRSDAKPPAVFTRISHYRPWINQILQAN
The assay is described as follows: Inhibition of chymase (Ki; Lineweaver-Burk double reciprocal plots).

The target in assay [2] is DPPIV (Homo sapiens, UniProt P27487). The assay is described as follows: Selectivity of chymase inhibitors against DPPIV. The conditions noted are these: ratio of Ki enzyme/Ki chymase.
Chain of DPPIV (P27487 whole entry, species assumed): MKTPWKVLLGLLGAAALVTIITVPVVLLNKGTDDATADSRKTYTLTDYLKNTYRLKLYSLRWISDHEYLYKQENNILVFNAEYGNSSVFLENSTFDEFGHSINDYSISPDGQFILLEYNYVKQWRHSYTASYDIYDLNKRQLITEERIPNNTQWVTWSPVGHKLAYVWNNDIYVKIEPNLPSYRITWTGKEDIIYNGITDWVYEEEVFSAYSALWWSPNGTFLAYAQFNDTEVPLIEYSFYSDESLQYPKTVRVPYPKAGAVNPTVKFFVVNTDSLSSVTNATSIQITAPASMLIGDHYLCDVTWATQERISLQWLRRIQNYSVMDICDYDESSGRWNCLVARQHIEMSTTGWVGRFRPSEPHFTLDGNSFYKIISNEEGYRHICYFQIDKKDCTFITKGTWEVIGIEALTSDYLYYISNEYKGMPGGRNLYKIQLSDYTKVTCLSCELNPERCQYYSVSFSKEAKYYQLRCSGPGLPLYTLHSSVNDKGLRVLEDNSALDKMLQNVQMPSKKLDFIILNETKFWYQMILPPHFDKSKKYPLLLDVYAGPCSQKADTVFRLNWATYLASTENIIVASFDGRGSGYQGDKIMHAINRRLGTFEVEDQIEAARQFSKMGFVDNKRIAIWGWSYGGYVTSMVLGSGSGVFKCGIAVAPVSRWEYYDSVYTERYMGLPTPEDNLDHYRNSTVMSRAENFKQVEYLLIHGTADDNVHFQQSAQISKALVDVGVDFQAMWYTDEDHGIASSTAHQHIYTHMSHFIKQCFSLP
Assay [3] has as its target Thrombin (Homo sapiens, UniProt P00734). The experiment in a line: Selectivity of chymase inhibitors against thrombin. As to conditions: ratio of Ki enzyme/Ki chymase. The procedure:
(§1) As provided in Table 1, hereinabove in Example 2, selectivity was tested by measuring the inhibitory activity of ef-rs-03-075 and analogs against other serine proteases, including thrombin, trypsin, and tryrptase.

Assay [4] deals with Tryptase (Homo sapiens, UniProt Q15661). The assay is described as follows: Selectivity of chymase inhibitors against tryptase. The conditions noted are these: ratio of Ki enzyme/Ki chymase. The procedure: as §1
Chain of Tryptase (Q15661 31-275): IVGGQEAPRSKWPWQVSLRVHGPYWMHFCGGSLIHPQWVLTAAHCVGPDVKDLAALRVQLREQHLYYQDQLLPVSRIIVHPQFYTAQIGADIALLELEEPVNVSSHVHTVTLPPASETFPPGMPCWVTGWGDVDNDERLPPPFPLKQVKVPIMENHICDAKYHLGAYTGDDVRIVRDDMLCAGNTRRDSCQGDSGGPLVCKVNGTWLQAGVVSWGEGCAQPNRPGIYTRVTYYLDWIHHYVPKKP
The subject of assay [5] is Trypsin. The assay is described as follows: Selectivity of chymase inhibitors against trypsin. The conditions noted are these: ratio of Ki enzyme/Ki chymase. The procedure: as §1

Where two headings read alike, the source gives them in different places. Where only a bound is given, the exact number is not on record here.

Take `O=S(=O)(/C=C/c1cccc(Br)c1)N(Cc1ccccc1)c1cccc(Cl)c1` [ef-rs-03-015-P2]: the Ki in assay [1] (read-out: Chymase Ki) is 1580 ± 130 nM. Further, the “Selectivity of chymase inhibitors: DPPIV” value in assay [2] was greater than 100. Further, the “Selectivity of chymase inhibitors: Thrombin” value in assay [3] is reported as greater than 200. Further, in assay [4], the “Selectivity of chymase inhibitors: Tryptase” value is reported as greater than 260.

Turning to `O=S(=O)(/C=C/c1cccc(Cl)c1)N(Cc1ccccc1)c1cccc(Cl)c1` [ef-rs-03-019-P4], the Ki in assay [1] (read-out: Chymase Ki) was 1320 ± 280 nM. Further, the “Selectivity of chymase inhibitors: DPPIV” value in assay [2] is greater than 100. Also, the “Selectivity of chymase inhibitors: Thrombin” value in assay [3] is on record as greater than 200. Moreover, the “Selectivity of chymase inhibitors: Tryptase” value in assay [4] is greater than 275.

Consider `O=S(=O)(/C=C/c1cccc(Cl)c1)N(Cc1ccsc1)c1cccc(Cl)c1` [ef-rs-03-038-P1], for which the Ki in assay [1] (read-out: Chymase Ki) amounted to 1570 ± 390 nM. Further, the “Selectivity of chymase inhibitors: DPPIV” value in assay [2] stood at 34. Further, in assay [3], the “Selectivity of chymase inhibitors: Thrombin” value was greater than 60. Besides, the “Selectivity of chymase inhibitors: Tryptase” value in assay [4] is greater than 240.

Consider `O=S(=O)(/C=C/c1cccc(Br)c1)N(Cc1ccsc1)c1cccc(Cl)c1` [ef-rs-03-039-P1], for which, in assay [1] (read-out: Chymase Ki), the Ki was 1340 ± 390 nM. In addition, the “Selectivity of chymase inhibitors: DPPIV” value in assay [2] turned out to be 17. Moreover, the “Selectivity of chymase inhibitors: Thrombin” value in assay [3] was greater than 60. For the same molecule, in assay [4], the “Selectivity of chymase inhibitors: Tryptase” value is on record as greater than 310.

As for `O=S(=O)(/C=C/c1cccc(Cl)c1)N(Cc1cccc(Cl)c1)c1cccc(Cl)c1` [ef-rs-03-075, (E)-N-(3-chlorobenzyl)-N,2-bis(3-chlorophenyl)ethenesulfonamide], the inhibitory mechanism result in assay [1] (double reciprocal plot of substrate concentration vs. reaction velocity, various inhibitor concentrations (FIG. 4)) was “competitive inhibition”. Besides, the Ki in assay [1] (read-out: Chymase Ki) came out at 959 ± 42 nM; in assay [1] (value given in the description text as 'high affinity', read-out: affinity), 544 nM. Moreover, the “Selectivity of chymase inhibitors: DPPIV” value in assay [2] is reported as 37. For the same molecule, the “Selectivity of chymase inhibitors: Thrombin” value in assay [3] is greater than 320. For the same molecule, the “Selectivity of chymase inhibitors: Trypsin” value in assay [5] was greater than 110. Moreover, the “Selectivity of chymase inhibitors: Tryptase” value in assay [4] is greater than 410.

Consider `Cc1cccc(CN(c2cccc(Cl)c2)S(=O)(=O)/C=C/c2cccc(Cl)c2)c1` [ef-rs-08-049], for which the Ki in assay [1] (read-out: Chymase Ki) amounted to 1110 ± 220 nM. Besides, the “Selectivity of chymase inhibitors: DPPIV” value in assay [2] is 170. The “Selectivity of chymase inhibitors: Thrombin” value in assay [3] was determined as 13. Also, the “Selectivity of chymase inhibitors: Tryptase” value in assay [4] was greater than 350.

`O=S(=O)(/C=C/c1cccc(Cl)c1)N(Cc1cccc(Br)c1)c1cccc(Cl)c1` [ef-rs-08-050]: in assay [1] (read-out: Chymase Ki), the Ki was 1220 ± 190 nM. In addition, in assay [2], the “Selectivity of chymase inhibitors: DPPIV” value turned out to be 40. For the same molecule, the “Selectivity of chymase inhibitors: Thrombin” value in assay [3] amounted to 45. In addition, in assay [4], the “Selectivity of chymase inhibitors: Tryptase” value is recorded as greater than 320.

As to `O=S(=O)(/C=C/c1cccc(Cl)c1)N(Cc1ccc(Cl)c(Cl)c1)c1cccc(Cl)c1` [ef-rs-08-051], the Ki in assay [1] (read-out: Chymase Ki) was found to be 903 ± 150 nM. In addition, in assay [2], the “Selectivity of chymase inhibitors: DPPIV” value is recorded as 16. Also, in assay [3], the “Selectivity of chymase inhibitors: Thrombin” value came to 70. Moreover, the “Selectivity of chymase inhibitors: Tryptase” value in assay [4] was greater than 110.

`O=S(=O)(/C=C/c1cccc(Cl)c1)N(Cc1cccc(Cl)c1)c1cccc(OCc2cccc(Cl)c2)c1` [ef-rs-08-052]: in assay [1] (read-out: Chymase Ki), the Ki was determined as 978 ± 87 nM. In addition, the “Selectivity of chymase inhibitors: DPPIV” value in assay [2] was 10. Further, the “Selectivity of chymase inhibitors: Thrombin” value in assay [3] is greater than 75. Further, the “Selectivity of chymase inhibitors: Tryptase” value in assay [4] was greater than 100.

For the molecule `O=S(=O)(/C=C/c1cccc(Cl)c1)N(Cc1ccc(Cl)cc1)c1cccc(Cl)c1` [ef-rs-08-056], the Ki in assay [1] (read-out: Chymase Ki) is 1260 ± 200 nM. Further, in assay [2], the “Selectivity of chymase inhibitors: DPPIV” value stood at 80. The “Selectivity of chymase inhibitors: Thrombin” value in assay [3] stood at 20. Also, the “Selectivity of chymase inhibitors: Tryptase” value in assay [4] was greater than 310.

As for `O=S(=O)(/C=C/c1cccc(Cl)c1)N(Cc1cccc(F)c1)c1cccc(Cl)c1` [ef-rs-08-057], in assay [1] (read-out: Chymase Ki), the Ki amounted to 1190 ± 120 nM. The “Selectivity of chymase inhibitors: DPPIV” value in assay [2] is 70. In addition, the “Selectivity of chymase inhibitors: Thrombin” value in assay [3] is given as greater than 50. The “Selectivity of chymase inhibitors: Tryptase” value in assay [4] was greater than 80.
